In patent US11180474B2 (BRISTOL-MYERS SQUIBB COMPANY, priority 2016, dated 2021):
Where a name gives a salt, the structure may show the parent alone.

Columns and labels:
[1] = target: T1, human TLR8 (Homo sapiens, UniProt Q9NR97); test: TLR8 inhibition reporter assay (HEK-Blue cells, SEAP reporter, R848 stimulation); type: cell-based; details: HEK-Blue cells overexpressing human TLR8, R848 15.9 μM
T1 construct: host or cells: HEK-Blue cells
T1 sequence (Q9NR97 27-1041): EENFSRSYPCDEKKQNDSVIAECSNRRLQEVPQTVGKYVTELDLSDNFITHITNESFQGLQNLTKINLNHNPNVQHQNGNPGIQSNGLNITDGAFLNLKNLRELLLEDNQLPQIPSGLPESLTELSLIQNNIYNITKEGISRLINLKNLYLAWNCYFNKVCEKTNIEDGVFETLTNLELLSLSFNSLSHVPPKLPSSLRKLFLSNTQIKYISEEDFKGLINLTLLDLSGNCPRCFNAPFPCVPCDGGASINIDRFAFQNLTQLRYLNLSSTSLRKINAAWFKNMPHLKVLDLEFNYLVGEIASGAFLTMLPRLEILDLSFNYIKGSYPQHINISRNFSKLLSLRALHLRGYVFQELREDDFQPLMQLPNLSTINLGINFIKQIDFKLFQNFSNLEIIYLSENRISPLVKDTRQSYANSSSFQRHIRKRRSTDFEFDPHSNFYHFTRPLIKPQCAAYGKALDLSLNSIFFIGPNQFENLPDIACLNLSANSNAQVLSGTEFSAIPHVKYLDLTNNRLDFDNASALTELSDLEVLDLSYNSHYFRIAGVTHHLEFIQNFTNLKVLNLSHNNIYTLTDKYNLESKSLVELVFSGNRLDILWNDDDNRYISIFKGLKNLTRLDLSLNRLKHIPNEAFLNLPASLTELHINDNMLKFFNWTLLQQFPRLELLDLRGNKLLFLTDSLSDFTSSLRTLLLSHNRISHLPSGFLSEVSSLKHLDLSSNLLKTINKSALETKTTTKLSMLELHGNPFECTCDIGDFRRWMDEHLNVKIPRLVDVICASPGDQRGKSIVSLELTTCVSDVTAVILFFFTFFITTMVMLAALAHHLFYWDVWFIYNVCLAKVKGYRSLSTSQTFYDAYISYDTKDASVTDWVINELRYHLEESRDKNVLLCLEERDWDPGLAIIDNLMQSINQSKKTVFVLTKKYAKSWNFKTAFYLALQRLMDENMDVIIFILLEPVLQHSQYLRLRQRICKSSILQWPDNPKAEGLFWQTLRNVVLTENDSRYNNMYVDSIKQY
Method in brief: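 Dose-response testing from 0.05 nM to 50 μM final was done on reporter cells for 22 hours at 37° C. Secreted SEAP was then detected, and inhibition was calculated as percent reduction of the agonist-plus-DMSO signal compared with wells given a known inhibitor.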

[2] = target: T2, human TLR9 (Homo sapiens, UniProt Q9NR96); test: TLR9 inhibition reporter assay (HEK-Blue cells, SEAP reporter, ODN2006 stimulation); type: cell-based; details: HEK-Blue cells overexpressing human TLR9, ODN2006 5 nM
T2 construct: host or cells: HEK-Blue cells
T2 sequence (Q9NR96 26-1032): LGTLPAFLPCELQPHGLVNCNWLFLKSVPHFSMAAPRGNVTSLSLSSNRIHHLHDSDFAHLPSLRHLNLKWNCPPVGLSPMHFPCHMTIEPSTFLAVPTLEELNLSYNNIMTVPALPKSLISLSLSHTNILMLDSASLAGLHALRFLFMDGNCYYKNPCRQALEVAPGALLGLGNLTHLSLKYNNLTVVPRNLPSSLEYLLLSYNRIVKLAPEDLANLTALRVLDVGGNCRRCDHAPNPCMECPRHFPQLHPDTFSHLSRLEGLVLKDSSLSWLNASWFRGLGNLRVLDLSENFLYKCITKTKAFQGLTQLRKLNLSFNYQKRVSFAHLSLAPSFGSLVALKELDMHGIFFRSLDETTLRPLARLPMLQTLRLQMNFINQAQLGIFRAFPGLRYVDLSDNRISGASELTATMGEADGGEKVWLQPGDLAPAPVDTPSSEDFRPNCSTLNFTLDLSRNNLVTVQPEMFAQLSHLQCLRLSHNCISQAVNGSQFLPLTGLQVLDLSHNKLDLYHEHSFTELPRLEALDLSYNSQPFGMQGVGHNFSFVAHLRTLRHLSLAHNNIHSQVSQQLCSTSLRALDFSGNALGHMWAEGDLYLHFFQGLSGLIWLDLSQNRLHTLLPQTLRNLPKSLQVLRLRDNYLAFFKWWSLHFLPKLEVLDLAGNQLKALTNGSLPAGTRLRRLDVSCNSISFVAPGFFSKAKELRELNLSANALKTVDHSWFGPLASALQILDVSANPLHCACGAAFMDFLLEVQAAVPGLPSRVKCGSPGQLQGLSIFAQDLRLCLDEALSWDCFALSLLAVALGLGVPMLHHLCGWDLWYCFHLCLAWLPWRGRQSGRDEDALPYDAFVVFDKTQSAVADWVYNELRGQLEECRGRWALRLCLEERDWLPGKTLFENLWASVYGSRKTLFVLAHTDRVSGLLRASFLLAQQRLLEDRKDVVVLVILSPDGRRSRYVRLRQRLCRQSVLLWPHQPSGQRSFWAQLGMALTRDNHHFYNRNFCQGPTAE
Method in brief: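 Screening used HEK-Blue cells overexpressing one human TLR (7, 8 or 9) and an IFN-β minimal promoter–NF-κB/AP-1 SEAP construct. Stimulation lasted 22 h at 37 °C with receptor-specific agonist: gardiquimod, R848 or ODN2006 at 7.5 μM, 15.9 μM and 5 nM.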

Structure (SMILES) | IC50 [1] | IC50 [2]
CCN(CC)C(=O)C1CCCN(CC(=O)N2CCC(c3ccc4[nH]c(-c5ccc(OC)c(OC)c5)c(C5CCOCC5)c4c3)CC2)C1 (stereo not drawn) [Example 391, 1-(2-(4-(2-(3,4-dimethoxyphenyl)-3-(tetrahydro-2H-pyran-4-yl)-1H-indol-5-yl)piperidin-1-yl)-2-oxoethyl)-N,N-diethylpiperidine-3-carboxamide] | 356 nM | 5400 nM
COc1ccc(-c2[nH]c3ccc(C4CCN(C(=O)[C@@H]5CCCN5C(C)=O)CC4)cc3c2CC(F)(F)F)cc1OC [Example 336, (S)-1-(2-(4-(2-(3,4-dimethoxyphenyl)-3-(2,2,2-trifluoroethyl)-1H-indol-5-yl)piperidine-1-carbonyl)pyrrolidin-1-yl)ethan-1-one] | 697 nM | 27800 nM
CCc1c(-c2ccc(OC)c(OC)c2)[nH]c2cc(C)c(C3CCNCC3)cc12 [Example 396, 2-(3,4-dimethoxyphenyl)-3-ethyl-6-methyl-5-(piperidin-4-yl)-1H-indole, HCl] | 295 nM | 3430 nM
COc1ccc(-c2[nH]c3ccc(C4CCN(C(=O)CCCN(C)C)CC4)cc3c2CC(F)(F)F)cc1OC [Example 351, 1-(4-(2-(3,4-dimethoxyphenyl)-3-(2,2,2-trifluoroethyl)-1H-indol-5-yl)piperidin-1-yl)-4-(dimethylamino)butan-1-one] | 57 nM | 1560 nM
CCC(C)NC(=O)CN1CCC(c2ccc3[nH]c(-c4ccc(OC)c(OC)c4)c(CC(F)(F)F)c3c2)CC1 (stereo not drawn) [Example 377, N-(sec-butyl)-2-(4-(2-(3,4-dimethoxyphenyl)-3-(2,2,2-trifluoroethyl)-1H-indol-5-yl)piperidin-1-yl)acetamide] | 204 nM | 8650 nM
COc1ccc(-c2[nH]c3ccc(C4CCN(CC(=O)N(C)CCCN(C)C)CC4)cc3c2CC(F)(F)F)cc1OC [Example 365, 2-(4-(2-(3,4-dimethoxyphenyl)-3-(2,2,2-trifluoroethyl)-1H-indol-5-yl)piperidin-1-yl)-N-(3-(dimethylamino)propyl)-N-methylacetamide] | 24 nM | 190 nM
COc1ccc(-c2[nH]c3ccc(C4CCN(C(=O)NCCc5ccccc5)CC4)cc3c2CC(F)(F)F)cc1OC [Example 357, 4-(2-(3,4-dimethoxyphenyl)-3-(2,2,2-trifluoroethyl)-1H-indol-5-yl)-N-phenethylpiperidine-1-carboxamide] | 943 nM | ≥ 50000 nM
CCN(CC)C(=O)C1CCCN(CC(=O)N2CCC(c3ccc4[nH]c(-c5ccc(OC)c(OC)c5)c(C5CCOCC5)c4c3)CC2)C1 (stereo not drawn) [Example 392, 1-(2-(4-(2-(3,4-dimethoxyphenyl)-3-(tetrahydro-2H-pyran-4-yl)-1H-indol-5-yl)piperidin-1-yl)-2-oxoethyl)-N,N-diethylpiperidine-3-carboxamide] | 196 nM | 1800 nM
COc1ccc(-c2[nH]c3ccc(C4CCN(CC(=O)NCC(N)=O)CC4)cc3c2CC(F)(F)F)cc1OC [Example 385, N-(2-amino-2-oxoethyl)-2-(4-(2-(3,4-dimethoxyphenyl)-3-(2,2,2-trifluoroethyl)-1H-indol-5-yl)piperidin-1-yl)acetamide] | 41 nM | 4250 nM
COc1ccc(-c2[nH]c3ccc(C4CCN(C(=O)CS(C)(=O)=O)CC4)cc3c2CC(F)(F)F)cc1OC [Example 347, 1-(4-(2-(3,4-dimethoxyphenyl)-3-(2,2,2-trifluoroethyl)-1H-indol-5-yl)piperidin-1-yl)-2-(methylsulfonyl)ethan-1-one] | 767 nM | 39100 nM
COc1ccc(-c2[nH]c3ccc(C4CCN(C(=O)CN(C)C)CC4)cc3c2CC(F)(F)F)cc1OC [Example 354, 1-(4-(2-(3,4-dimethoxyphenyl)-3-(2,2,2-trifluoroethyl)-1H-indol-5-yl)piperidin-1-yl)-2-(dimethylamino)ethan-1-one] | 82 nM | 2150 nM
COc1ccc(-c2[nH]c3ccc(C4CCNCC4)cc3c2CC(F)(F)F)cc1OC [Example 329, 2-(3,4-dimethoxyphenyl)-5-(piperidin-4-yl)-3-(2,2,2-trifluoroethyl)-1H-indole] | 19 nM | 1160 nM
COc1ccc(-c2[nH]c3ccc(C4CCN(C(=O)Cc5c[nH]cn5)CC4)cc3c2CC(F)(F)F)cc1OC [Example 334, 1-(4-(2-(3,4-dimethoxyphenyl)-3-(2,2,2-trifluoroethyl)-1H-indol-5-yl)piperidin-1-yl)-2-(1H-imidazol-4-yl)ethan-1-one] | 412 nM | 7770 nM
COc1ccc(-c2[nH]c3ccc(C4CCN(C(=O)CNC[C@@H](O)CO)CC4)cc3c2C)cc1OC [Example 405, (R)-2-((2,3-dihydroxypropyl)amino)-1-(4-(2-(3,4-dimethoxyphenyl)-3-methyl-1H-indol-5-yl)piperidin-1-yl)ethan-1-one] | 29200 nM | 13500 nM
COc1ccc(-c2[nH]c3ccc(C4CCN(CC(=O)N5CC[C@H](N(C)C)C5)CC4)cc3c2CC(F)(F)F)cc1OC [Example 374, (S)-2-(4-(2-(3,4-dimethoxyphenyl)-3-(2,2,2-trifluoroethyl)-1H-indol-5-yl)piperidin-1-yl)-1-(3-(dimethylamino)pyrrolidin-1-yl) ethan-1-one] | 35 nM | 252 nM
COc1ccc(-c2[nH]c3ccc(C4CCN(CC(=O)N5CCC(C(N)=O)CC5)CC4)cc3c2CC(F)(F)F)cc1OC [Example 369, 1-(2-(4-(2-(3,4-dimethoxyphenyl)-3-(2,2,2-trifluoroethyl)-1H-indol-5-yl)piperidin-1-yl)acetyl)piperidine-4-carboxamide] | 43 nM | 1950 nM
COc1ccc(-c2[nH]c3ccc(C4CCN(CC(=O)N5CCN(C(C)=O)CC5)CC4)cc3c2CC(F)(F)F)cc1OC [Example 361, 1-(4-acetylpiperazin-1-yl)-2-(4-(2-(3,4-dimethoxyphenyl)-3-(2,2,2-trifluoroethyl)-1H-indol-5-yl)piperidin-1-yl)ethan-1-one] | 109 nM | 2420 nM
COc1ccc(-c2[nH]c3ccc(C4CCN(C(=O)Cc5cccnc5)CC4)cc3c2CC(F)(F)F)cc1OC [Example 335, 1-(4-(2-(3,4-dimethoxyphenyl)-3-(2,2,2-trifluoroethyl)-1H-indol-5-yl)piperidin-1-yl)-2-(pyridin-3-yl)ethan-1-one] | 632 nM | 15300 nM
